Earlier results as cited in patent US7625587B2, “Hepato phyto-nutraceutical synergistic composition” (priority 2006, dated 2009).
Each block holds one compound with its values, some of them ahead of it.

Key:
hepatic mitochondria = settings: free oxygen radical induced damage
mice hepatocytes [1] = test system: mice hepatocytes
[2] = test system: bacterial resistance mechanism (multidrug pump); settings: in the presence of 5′-MHC
[3] = test system: hepatic toxicity induced by paracetamol, prednisolone and bromobenzene; settings: mice; pre-treatment during ten days
beta-reductase = settings: in vitro
[4] = test system: 11_beta-hydroxysteroid dehydrogenase; settings: in vitro
mice hepatocytes [5] = test system: mice hepatocytes; remark: listed apart in the source
[6] = test system: carbon tetrachloride hepatotoxicity; settings: mouse, in vivo

Compound: COc1cc(/C=C/C(=O)O)ccc1O [Ferulic acid, ferulic acid]
protection of hepatic mitochondria (hepatic mitochondria): protected the hepatic mitochondria

Compound: CC1(C)[C@@H](O[C@H]2O[C@H](C(=O)O)[C@@H](O)[C@H](O)[C@H]2O[C@@H]2O[C@H](C(=O)O)[C@@H](O)[C@H](O)[C@H]2O)CC[C@]2(C)[C@H]3C(=O)C=C4[C@@H]5C[C@@](C)(C(=O)O)CC[C@]5(C)CC[C@@]4(C)[C@]3(C)CC[C@@H]12 [glicirricinic acid]
toxic action of carbon tetrachloride and of galactosamine (mice hepatocytes [1]): reduces the toxic action

Compound: COc1cc([C@H]2Oc3cc(-c4cc(=O)c5c(O)cc(O)cc5o4)cc(OC)c3O[C@@H]2CO)ccc1O (racemic) [5′-methoxyhydnocarpin]
accumulation of berberine in the cells [2]: strong increase of accumulation of berberine

Compound: COc1cc(/C=C/C(=O)[O-])ccc1O.[Na+] [sodium ferulate]
drug induced hepatic toxicity [3]: improved the hepatic toxicity

inhibition of beta-reductase (beta-reductase): inhibits
inhibition of 11_beta-hydroxysteroid dehydrogenase [4]: inhibits
Compound: CC1(C)[C@@H](O)CC[C@]2(C)[C@H]3C(=O)C=C4[C@@H]5C[C@@](C)(C(=O)O)CC[C@]5(C)CC[C@@]4(C)[C@]3(C)CC[C@@H]12 [glycyrrhetic acid]

Compound: CC1(C)[C@@H](O[C@H]2O[C@H](C(=O)O)[C@@H](O)[C@H](O)[C@H]2O[C@@H]2O[C@H](C(=O)O)[C@@H](O)[C@H](O)[C@H]2O)CC[C@]2(C)[C@H]3C(=O)C=C4[C@@H]5C[C@@](C)(C(=O)O)CC[C@]5(C)CC[C@@]4(C)[C@]3(C)CC[C@@H]12 [Glycyrrhizin]
liberation of histamine (mice hepatocytes [5]): inhibited the liberation of histamine
hepatic injuries induced by carbon tetrachloride [6]: prevented hepatic injuries
